According to US12410153B2, “Compounds, compositions and methods” (Avalo Therapeutics, Inc., priority 2014, dated 2025):

Assays:
[1] = tested on: systemic blood pressure and heart rate; assay: Blood pressure profile in chronically instrumented (telemetered) rats; assay type: in vivo, rat
Protocol: A single oral gavage dose was administered (volume: 5 mL/kg). […] Following the completion of the Latin square, two additional dose concentrations were evaluated (0.6 and 10 mg/kg, n=3 per group).
All IV doses were administered in manually restrained rats via tail vena-puncture. It should be noted that vehicle controls were also administered.
A 24-hour recording was performed prior to dosing (vehicle alone) and after each oral dose.

[2] = Repeated once-daily oral dosing with food (Days 1-7) in healthy subjects, PK and PD; assay type: in vivo, human; conditions: oral doses up to 20 mg
Protocol: A randomized, double-blind, placebo-controlled, parallel-dose group in-patient study is conducted to investigate the pharmacodynamic (PD) effects of crystalline Form II of Compound (I) in healthy subjects.
The study is designed as a three-part, sequential study. The sequential nature of the study ensures that a range of doses are investigated first in a young, healthy population (Part 1) before proceeding to higher doses in the healthy population and the comparator populations (intermediate age and elderly) (Parts 2 and 3). For the purposes of this study, “young” refers to a subject who is 18 to 45 years of age, “intermediate age” refers to a subject who is 46 to 64 years of age, and “elderly” refers to a subject who is 65 years of age or older.
After a screening period of up to 21 days (Days −23 to −3), 16 healthy, young male and female subjects are randomly assigned to a dose group as shown in Table 9.
Each parallel dose group is balanced for gender (approximately equal number of males and females). The randomized subjects are domiciled from Day −1 through Day 8. On Day −1, the subjects receive placebo tablets in the fed state and undergo ambulatory blood pressure monitoring (ABPM) and safety assessments to establish time-matched baselines. On Days 1-7, the subjects receive the study drug in the fed state and undergo safety, pharmacokinetic (PK) and pharmacodynamics (PD) assessments. On Days 8-11, follow-up PK and safety assessments are performed.
Safety assessments include Clinician-Administered Dissociative States Scale (CADSS), Columbia-Suicide Severity Rating Scale (C-SSRS), concomitant medication, adverse event (AE) and vital sign assessments. In PK assessments, blood samples are taken and analyzed to determine PK parameters such as Cmax, Tmax, AUC0-24, and t1/2. PD assessments include ABPM, plasma brain-derived neurotrophic factor (BDNF) measurements, and Profile of Mood States (POMS) assessments.
After a screening period of up to 21 days (Days −23 to −3), 16 subjects (8 healthy, young male and female subjects, and 8 healthy, intermediate age male and female subjects) are randomly assigned to a dose group as shown in Table 10.
After a screening period of up to 21 days (Days −23 to −3), 16 subjects (8 healthy, young male and female subjects, and 8 healthy, elderly male and female subjects) are randomly assigned to a dose group as shown in Table 11.

[3] = patients with TRMDD; Ibrahim et al. 2012; cited from earlier work
Sprague-Dawley rats [4] = assay: Acute depression model, forced swim test; assay type: in vivo, rat; conditions: 20 mg/kg vs vehicle
Protocol: Young, adult, male Sprague-Dawley rats were randomly assigned across the treatment groups and were administered vehicle (0.5% MC/0.02% SLS), the reference compound desipramine (20 mg/kg; a tricyclic antidepressant; Sigma, Lot #078K1326) dissolved in sterile water, or crystalline Form II of Compound (I) (0.1, 0.3, 1, 3, 10, and 30 mg/kg) suspended in 0.5% MC/0.02% SLS, twice on Day 1 (after habituation; ˜24 h prior to test, and prior to dark cycle) and once on Day 2 (30 min pre-test for desipramine and 45 min pre-test for Form II and vehicle).
Each Forced Swim chamber was constructed of clear acrylic (height, 40 cm; diameter, 20.3 cm). Rats were subjected to a pre-dose swim test of one 15-min session in cylinders containing water at 23° C.±1° C., followed approximately 24 h later by the experimental 5-min session. The water level was 16 cm deep during habituation and 30 cm deep during the test. Immobility, climbing, and swimming behaviors were recorded every 5 s for a total of 60 counts per subject. When an animal was unable to maintain a posture with its nose above water, it was immediately removed from the water and eliminated from the study. Blood was collected at the completion of swim test procedures and plasma was analyzed for Form II concentrations.

[5] = Polymorph stability (slurry and heating, XRPD); assay type: physicochemical; conditions: heating to 115° C.
Protocol: Crystalline Form II of Compound (I) was characterized using X-ray powder diffraction (XRPD) (FIG. 1A). The XRPD pattern corresponds to an anhydrous form denoted as Form II, which is highly crystalline. In addition to Form II, Compound (I) can exist as another anhydrous polymorph, denoted as Form I. The XRPD patterns of these phases are shown in FIG. 1B. A slurry experiment was performed at room temperature by adding approximately equal proportions of the two anhydrous phases to methyl-tert-butyl ether.

Sprague-Dawley rats [6] = assay: Rat forced swim test 24 hours after administration; assay type: in vivo; conditions: 10 mg/kg, i.p., 24 hours before test, p<0.05
Protocol: This study aimed to evaluate the duration of the antidepressant-like effects of Form II of Compound (I) using the forced swim test in male, Sprague-Dawley rats. Clinically effective antidepressant compounds reduce immobility time and increase swimming in rodents subjected to this test. Rats received Compound (I) (10 mg/kg, p.o.) or ketamine (10 mg/kg, i.p.) and 24 hours later were subjected to testing. […] The data represent mean±SEM.

[7] = 1 mg/kg IV bolus, blocker alone

For `Cc1ccc(COC(=O)N2CC[C@H](CNc3ncccn3)[C@H](F)C2)cc1` [Compound (I), 4-methylbenzyl (3S, 4R)-3-fluoro-4-[(pyrimidin-2-ylamino)methyl] piperidine-1-carboxylate], the heart rate ([1]; 0.3 and 0.6 mg/kg oral) was “modestly increased heart rate”, the heart rate ([1]; between 1 and 10 mg/kg oral) was “increased HR dose proportionally” and the “magnitude of change in hemodynamics compared with MK-801 (0.2 mg/kg IV)” value ([1]; oral 0.3-10 mg/kg) was “significantly less than that of MK-801”. The arterial blood pressure ([1]; oral, dose-dependent between 0.3-1 mg/kg, plateaued at 1-10 mg/kg) was “increased arterial blood pressure transiently”, the “heart rates in human studies” value [2] was “have not been observed to increase to any significant degree” and the “primary hemodynamic observation in human studies” value [2] was “transient increase in systolic and diastolic blood pressure”. The “HAM-D17 and Beck Depression Inventory (BDI)” value [3] was “showed antidepressant effects”.
In the case of `CNCCCN1c2ccccc2CCc2ccccc21` [Desipramine, reference compound], the swimming behavior (Sprague-Dawley rats [4]) is reported as “no change”, the immobility (Sprague-Dawley rats [4]; P<0.001) is reported as “significantly decreased” and the climbing behavior (Sprague-Dawley rats [4]; P<0.01) is reported as “significantly increased”.
In the case of `Cc1ccc(COC(=O)N2CC[C@H](CNc3ncccn3)[C@H](F)C2)cc1` [Form I, 4-methylbenzyl (3S, 4R)-3-fluoro-4-[(pyrimidin-2-ylamino)methyl] piperidine-1-carboxylate], the “phase change on heating (XRPD of recovered solids)” value [5] is reported as “phase conversion to Form II”.
In the case of `CC(C)NCC(O)COc1ccc(CC(N)=O)cc1` (stereo not drawn) [atenolol, reference compound], the HR change [1, 7] is reported as −87±11 bpm and the MAP change [1, 7] is reported as −3.3±3.1 mmHg.
With `CNC1(c2ccccc2Cl)CCCCC1=O` (stereo not drawn) [ketamine, reference compound] the immobility (Sprague-Dawley rats [6]) was “reduced immobility” and the swim time (Sprague-Dawley rats [6]) was “increased swim time significantly”.
